According to US20240108641A1, “COMPOSITIONS FOR ORAL ADMINISTRATION OF ZOLEDRONIC ACID OR RELATED COMPOUNDS FOR TREATING DISEASE” (ANTECIP BIOVENTURES II LLC, priority 2012, published 2024):

System: complex regional pain syndrome (CRPS)
Assay: rat tibia fracture model of complex regional pain syndrome, dosing from day of fracture
Assay type: in vivo
Description: The effect of orally administered zoledronic acid was examined in the rat tibia fracture model of complex regional pain syndrome (CRPS). CRPS was induced in the rats by fracturing the right distal tibias of the animals and casting the fractured hindpaws for 4 weeks, as described in Guo T Z et al. (Pain. 2004; 108: 95-107).
Animals were orally administered either vehicle (control) or zoledronic acid, in a dosage of 18 mg/m^2/day (3 mg/kg/day) for 28 days, starting on the day of fracture and casting. Drug was dissolved in distilled water and administered by gavage. Animals were fasted for 4 hours before and 2 hours after dosing. At the end of the 28-day period, casts were removed, and on the following day, the rats were tested for hindpaw pain, edema, and warmth.
Pain was assessed by measuring hyperalgesia, and weight bearing.
To measure hyperalgesia, an up-down von Frey testing paradigm was used. Rats were placed in a clear plastic cylinder (20 cm in diameter) with a wire mesh bottom and allowed to acclimate for 15 minutes. The paw was tested with one of a series of eight von Frey hairs ranging in stiffness from 0.41 g to 15.14 g. The von Frey hair was applied against the hindpaw plantar skin at approximately midsole, taking care to avoid the tori pads. The fiber was pushed until it slightly bowed and then it was jiggled in that position for 6 seconds. Stimuli were presented at an interval of several seconds. Hindpaw withdrawal from the fiber was considered a positive response. […]
An incapacitance device (IITC Inc. Life Science, Woodland, CA, USA) was used to measure hindpaw weight bearing, a postural effect of pain. […] Eight readings (excluding the highest and lowest ones) were averaged to calculate the bilateral hindpaw weight-bearing values. Weight bearing data were analyzed as the ratio between right (fracture) and left hindpaw weight bearing values ((2R/(R+L))×100%). […]
The temperature of the hindpaw was measured using a fine wire thermocouple (Omega, Stanford, CT, USA) applied to the paw skin. […]

[1] = 18 mg/m^2/day oral for 28 days from fracture

## O=P(O)(O)C(O)(Cn1ccnc1)P(=O)(O)O [zoledronic acid]
18 mg/m^2/day (3 mg/kg/day) oral for 28 days from fracture
  overall effect compared to vehicle treated animals: reversed pain, restored weight bearing, and prevented edema
[1]
  hindlimb weight bearing: 86 % of normal
  reversal of fracture induced pain (von Frey) as compared to vehicle: 77%
